Experimental data reported in publication PMC11193019, “Transient kinetics reveal the mechanism of competitive inhibition of the neutral amino acid transporter ASCT2” (The Journal of Biological Chemistry, 2024).
Positions count from the first letter of the chain named.

Experiments:
Type in all cases: cell-based
ASCT2 (rASCT2) [1] = biological target: T1, ASCT2 (rASCT2) (Rattus norvegicus, UniProt D3ZJ25); test: whole-cell patch clamp (leak anion current block dose response; rapid solution exchange and displacement by serine)
T1 construct: gene Slc1a5; rASCT2 cDNA in pBK-CMV, expressed in HEK293T cells
T1 sequence (D3ZJ25 1-555): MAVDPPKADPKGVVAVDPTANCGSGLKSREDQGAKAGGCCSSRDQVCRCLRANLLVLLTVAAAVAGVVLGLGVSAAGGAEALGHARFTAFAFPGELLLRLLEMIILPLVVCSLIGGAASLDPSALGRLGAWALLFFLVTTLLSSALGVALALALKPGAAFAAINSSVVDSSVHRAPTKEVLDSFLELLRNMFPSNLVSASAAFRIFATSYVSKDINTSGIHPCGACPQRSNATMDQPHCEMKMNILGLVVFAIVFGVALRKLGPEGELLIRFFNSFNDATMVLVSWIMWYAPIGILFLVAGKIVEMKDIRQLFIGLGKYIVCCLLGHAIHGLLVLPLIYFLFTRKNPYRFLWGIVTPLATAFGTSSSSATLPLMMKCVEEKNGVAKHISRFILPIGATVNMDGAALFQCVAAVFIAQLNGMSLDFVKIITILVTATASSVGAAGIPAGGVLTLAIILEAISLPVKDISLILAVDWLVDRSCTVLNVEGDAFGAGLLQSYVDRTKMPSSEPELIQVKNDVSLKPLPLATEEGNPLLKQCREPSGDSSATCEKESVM

ASCT2 (rASCT2) [2] = biological target: T2, ASCT2 (rASCT2) (Rattus norvegicus, UniProt D3ZJ25, D402N); test: whole-cell patch clamp, anion current dose response at […] Na+
T2 construct: gene Slc1a5; rASCT2 mutant expressed in HEK293T cells
T2 sequence (D3ZJ25 1-555 D402N): T1 sequence (D3ZJ25 1-555) with D402N

ASCT2 (rASCT2) [3] = biological target: T3, ASCT2 (rASCT2) (Rattus norvegicus, UniProt D3ZJ25, D489N); test: as above
T3 construct: gene Slc1a5; rASCT2 mutant expressed in HEK293T cells
T3 sequence (D3ZJ25 1-555 D489N): T1 sequence (D3ZJ25 1-555) with D489N

O=C(O[C@@H]1CN[C@H](C(=O)O)C1)c1ccc(-c2ccccc2)cc1 [Lc-BPE, L-cis hydroxyproline biphenyl ester]
IC50 (ASCT2 (rASCT2) [1]): 0.83 ± 0.2 µM
IC50 (ASCT2 (rASCT2) [2]): 1.6 ± 0.1 µM
IC50 (ASCT2 (rASCT2) [3]): 4.4 ± 0.8 µM
